Data: patent publication US9732119B2, “Immunomodulators” (BRISTOL-MYERS SQUIBB COMPANY, priority 2014, dated 2017)
Positions of bridges follow the written chain, without caps; N, C: chain ends. Non-standard residues stand in square brackets, D forms with d. Residues, ends and D or L forms follow the SMILES beside them. Trp(1-CH2COOH) = N[C@@H](Cc1cn(CC(=O)O)c2ccccc12)C(=O)O; Phe(4-Cl) = N[C@@H](Cc1ccc(Cl)cc1)C(=O)O; Phe(4-F) = N[C@@H](Cc1ccc(F)cc1)C(=O)O; Phe(4-Me) = Cc1ccc(C[C@H](N)C(=O)O)cc1; Hyp = O=C(O)[C@@H]1C[C@@H](O)CN1; Aad = N[C@@H](CCCC(=O)O)C(=O)O; NMeNle = CCCC[C@H](NC)C(=O)O; dOrn = NCCC[C@@H](N)C(=O)O; Pip = O=C(O)[C@@H]1CCCCN1; NMeA = CN[C@@H](C)C(=O)O; Orn = NCCC[C@H](N)C(=O)O; Dab = NCC[C@H](N)C(=O)O; Dap = NC[C@H](N)C(=O)O; AEA = NCCOCC(=O)O; Ava = NCCCCC(=O)O

biological target: T1, PD-1-Ig binding to PD-L1-TVMV-His (PD-L1-His) (Homo sapiens, UniProt Q9NZQ7); assay: PD-1/PD-L1 Homogenous Time-Resolved Fluorescence (HTRF) binding assay; settings: PD-1-Ig (20 nM) / PD-L1-His (10 nM); range classes
T1 construct: hPDL1(19-239)-TVMV-His; made in house; host or cells: HEK293T cells
In short: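 HTRF competition: compound pre-incubated 15 min with PD-L1-His (10 nM final), then PD-1-Ig (20 nM final) added for 15 min in dPBS, 0.1% BSA, 0.05% Tween-20. Detection with Eu-cryptate anti-Ig (1 nM) and APC anti-His (20 nM) antibodies.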

T1 sequence (Q9NZQ7 with tags, fused parts or gaps): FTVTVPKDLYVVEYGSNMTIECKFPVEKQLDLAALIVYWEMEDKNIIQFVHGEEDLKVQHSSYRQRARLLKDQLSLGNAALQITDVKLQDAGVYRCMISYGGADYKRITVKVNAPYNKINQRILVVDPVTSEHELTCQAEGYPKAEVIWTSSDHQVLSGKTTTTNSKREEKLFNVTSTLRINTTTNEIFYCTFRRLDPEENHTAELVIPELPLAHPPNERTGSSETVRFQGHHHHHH

IC50 [nM]	SMILES
1 to 9.9	CCCC[C@H]1C(=O)N(C)[C@@H](CCCC)C(=O)N[C@@H](CC(C)C)C(=O)NCCCCC(=O)N[C@@H](Cc2ccc(F)cc2)C(=O)N2CCCC[C@H]2C(=O)N[C@@H](CC(N)=O)C(=O)N2CCC[C@H]2C(=O)N[C@@H](CN)C(=O)N[C@@H](CCC(=O)O)C(=O)N2C[C@H](O)C[C@H]2C(=O)N[C@@H](Cc2c[nH]c3ccccc23)C(=O)N[C@@H](CCN)C(=O)N[C@@H](Cc2cn(CC(=O)O)c3ccccc23)C(=O)N1C [Example 10543] (cyclo([Ava][Phe(4-F)][Pip]NP[Dap]E[Hyp]W[Dab][Trp(1-CH2COOH)][NMeNle][NMeNle]L))
10 to 99	CCCC[C@H]1C(=O)N(C)[C@@H](CCCC)C(=O)N[C@@H](CC(C)C)C(=O)NCCC[C@H](N)C(=O)N[C@@H](Cc2ccc(O)cc2)C(=O)N2CCCC[C@H]2C(=O)N[C@@H](CC(N)=O)C(=O)N2CCC[C@H]2C(=O)N[C@@H](CN)C(=O)N[C@@H](CCC(=O)O)C(=O)N2C[C@H](O)C[C@H]2C(=O)N[C@@H](Cc2c[nH]c3ccccc23)C(=O)N[C@@H](CCN)C(=O)N[C@@H](Cc2cn(CC(=O)O)c3ccccc23)C(=O)N1C [Example 10549] (H-[Orn]Y[Pip]NP[Dap]E[Hyp]W[Dab][Trp(1-CH2COOH)][NMeNle][NMeNle]L; lactam 1-C)
1 to 9.9	CCCC[C@H]1C(=O)N(C)[C@@H](CCCC)C(=O)N[C@@H](CCC(=O)O)C(=O)N[C@H](C(N)=O)CNCC(=O)N[C@@H](Cc2ccc(O)cc2)C(=O)N2CCCC[C@H]2C(=O)N[C@@H](CC(N)=O)C(=O)N2CCC[C@H]2C(=O)N[C@@H](CCC(N)=O)C(=O)N[C@@H](CCC(=O)O)C(=O)N2C[C@H](O)C[C@H]2C(=O)N[C@@H](Cc2c[nH]c3ccccc23)C(=O)N[C@@H](CC(N)=O)C(=O)N[C@@H](Cc2cn(CC(=O)O)c3ccccc23)C(=O)N1C [Example 9044]
10 to 99	CCCC[C@H]1C(=O)N(C)[C@@H](CCCC)C(=O)N[C@@H](CC(C)C)C(=O)NCCC[C@@H](N)C(=O)N[C@@H](Cc2ccc(C)cc2)C(=O)N2CCCC[C@H]2C(=O)N[C@@H](CC(N)=O)C(=O)N2CCC[C@H]2C(=O)N[C@@H](CN)C(=O)N[C@@H](CC(C)C)C(=O)N2C[C@H](O)C[C@H]2C(=O)N[C@@H](Cc2c[nH]c3ccccc23)C(=O)N[C@@H](CCN)C(=O)N[C@@H](Cc2cn(CC(=O)O)c3ccccc23)C(=O)N1C [Example 10567] (H-[dOrn][Phe(4-Me)][Pip]NP[Dap]L[Hyp]W[Dab][Trp(1-CH2COOH)][NMeNle][NMeNle]L; lactam 1-C)
1 to 9.9	CCCC[C@H]1C(=O)N(C)[C@@H](CCCC)C(=O)N[C@@H](CCC(=O)O)C(=O)N[C@H](C(N)=O)CNCC(=O)N[C@@H](Cc2ccc(O)cc2)C(=O)N2CCCC[C@H]2C(=O)N[C@@H](CC(N)=O)C(=O)N2CCC[C@H]2C(=O)N[C@@H](Cc2c[nH]cn2)C(=O)N[C@@H](CC(=O)O)C(=O)N2C[C@H](O)C[C@H]2C(=O)N[C@@H](Cc2c[nH]c3ccccc23)C(=O)N[C@@H](C)C(=O)N[C@@H](Cc2cn(CC(=O)O)c3ccccc23)C(=O)N1C [Example 9054]
1 to 9.9	CCCC[C@H]1C(=O)N(C)[C@@H](CCCC)C(=O)N[C@@H](CCC(=O)O)C(=O)N[C@H](C(=O)NCC(N)=O)CNCC(=O)N[C@@H](Cc2ccc(O)cc2)C(=O)N(C)[C@@H](C)C(=O)N[C@@H](CC(N)=O)C(=O)N2CCC[C@H]2C(=O)N[C@@H](CCC(N)=O)C(=O)N[C@@H](CC(C)C)C(=O)N2C[C@H](O)C[C@H]2C(=O)N[C@@H](Cc2c[nH]c3ccccc23)C(=O)N[C@@H](CC(N)=O)C(=O)N[C@@H](Cc2cn(CC(=O)O)c3ccccc23)C(=O)N1C [Example 9018]
10 to 99	CCCC[C@H]1C(=O)N(C)[C@@H](CCCC)C(=O)NC(CC(C)C)C(=O)N[C@H](C(=O)NCC(N)=O)CNCC(=O)N[C@@H](Cc2ccc(O)cc2)C(=O)N(C)[C@@H](C)C(=O)N[C@@H](CC(N)=O)C(=O)N2CCC[C@H]2C(=O)N[C@@H](CN)C(=O)N[C@@H](CC(C)C)C(=O)N2C[C@H](O)C[C@H]2C(=O)N[C@@H](Cc2c[nH]c3ccccc23)C(=O)N[C@@H](CCN)C(=O)N[C@@H](Cc2c[nH]c3ccccc23)C(=O)N1C (some centres unmarked) [Example 1029]
1 to 9.9	CCCC[C@H]1C(=O)N(C)[C@@H](CCCC)C(=O)NC(CC(C)C)C(=O)N[C@H](C(N)=O)CNCC(=O)N[C@@H](Cc2ccc(O)cc2)C(=O)N(C)[C@@H](C)C(=O)N[C@@H](CC(N)=O)C(=O)N2CCC[C@H]2C(=O)N[C@@H](CN)C(=O)N[C@@H](CCC(=O)O)C(=O)N2C[C@H](O)C[C@H]2C(=O)N[C@@H](Cc2c[nH]c3ccccc23)C(=O)N[C@@H](CCN)C(=O)N[C@@H](Cc2cn(CC(=O)O)c3ccccc23)C(=O)N1C (some centres unmarked) [Example 1035]
1 to 9.9	CCCC[C@H]1C(=O)N(C)[C@@H](CCCC)C(=O)N[C@@H](CCC(=O)O)C(=O)N[C@H](C(N)=O)CNCC(=O)N[C@@H](Cc2ccc(O)cc2)C(=O)N2CCCC[C@H]2C(=O)N[C@@H](CC(N)=O)C(=O)N2CCC[C@H]2C(=O)N[C@@H](CCC(N)=O)C(=O)N[C@@H](CCC(N)=O)C(=O)N2C[C@H](O)C[C@H]2C(=O)N[C@@H](Cc2c[nH]c3ccccc23)C(=O)N[C@@H](CC(N)=O)C(=O)N[C@@H](Cc2cn(CC(=O)O)c3ccccc23)C(=O)N1C [Example 9045]
10 to 99	CCCC[C@H]1C(=O)N(C)[C@@H](CCCC)C(=O)N[C@@H](CC(C)C)C(=O)N[C@H](C(N)=O)CNCC(=O)N[C@@H](Cc2ccc(F)cc2)C(=O)N2CCCC[C@H]2C(=O)N[C@@H](CC(N)=O)C(=O)N2CCC[C@H]2C(=O)N[C@@H](CCC(N)=O)C(=O)N[C@@H](CC(C)C)C(=O)N2C[C@H](O)C[C@H]2C(=O)N[C@@H](Cc2c[nH]c3ccccc23)C(=O)N[C@@H](CC(N)=O)C(=O)N[C@@H](Cc2cn(CC(=O)O)c3ccccc23)C(=O)N1C [Example 9030]
1 to 9.9	CCCC[C@H]1C(=O)N(C)[C@@H](CCCC)C(=O)N[C@@H](CC(C)C)C(=O)NCCOCC(=O)N[C@@H](Cc2ccc(O)cc2)C(=O)N(C)[C@@H](C)C(=O)N[C@@H](CC(N)=O)C(=O)N2CCC[C@H]2C(=O)N[C@@H](CN)C(=O)N[C@@H](CC(C)C)C(=O)N2C[C@H](O)C[C@H]2C(=O)N[C@@H](Cc2c[nH]c3ccccc23)C(=O)N[C@@H](CCN)C(=O)N[C@@H](Cc2c[nH]c3ccccc23)C(=O)N1C [Example 10501] (cyclo([AEA]Y[NMeA]NP[Dap]L[Hyp]W[Dab]W[NMeNle][NMeNle]L))
100 to 10000	CCCC[C@H]1C(=O)N(C)[C@@H](CCCC)C(=O)N[C@@H](CC(C)C)C(=O)NCCCCC(=O)N[C@@H](Cc2ccc(O)cc2)C(=O)N2CCCC[C@H]2C(=O)N[C@@H](CC(=O)O)C(=O)N2CCC[C@H]2C(=O)N[C@@H](Cc2c[nH]cn2)C(=O)N[C@@H](CCCCN)C(=O)N2C[C@H](O)C[C@H]2C(=O)N[C@@H](Cc2c[nH]c3ccccc23)C(=O)N[C@@H](CCCCN)C(=O)N[C@@H](Cc2cn(CC(=O)O)c3ccccc23)C(=O)N1C [Example 10510] (cyclo([Ava]Y[Pip]DPHK[Hyp]WK[Trp(1-CH2COOH)][NMeNle][NMeNle]L))
10 to 99	CCCC[C@H]1C(=O)N(C)[C@@H](CCCC)C(=O)N[C@@H](CC(C)C)C(=O)N[C@H](C(N)=O)CCCC(=O)N[C@@H](Cc2ccc(OC)cc2)C(=O)N2CCCC[C@H]2C(=O)N[C@@H](CC(N)=O)C(=O)N2CCC[C@H]2C(=O)N[C@@H](CN)C(=O)N[C@@H](CCC(=O)O)C(=O)N2C[C@H](O)C[C@H]2C(=O)N[C@@H](Cc2c[nH]c3ccccc23)C(=O)N[C@@H](CCN)C(=O)N[C@@H](Cc2cn(CC(=O)O)c3ccccc23)C(=O)N1C [Example 10522] (Y(Me)[Pip]NP[Dap]E[Hyp]W[Dab][Trp(1-CH2COOH)][NMeNle][NMeNle]L[Aad]-NH2; lactam N-14)
1 to 9.9	CCCC[C@H]1C(=O)N(C)[C@@H](CCCC)C(=O)N[C@@H](CC(C)C)C(=O)N[C@H](C(=O)NCC(N)=O)CNCC(=O)N[C@@H](Cc2ccc(F)cc2)C(=O)N(C)[C@@H](C)C(=O)N[C@@H](CC(=O)O)C(=O)N2CCC[C@H]2C(=O)N[C@@H](CCC(N)=O)C(=O)N[C@@H](CCC(=O)O)C(=O)N2C[C@H](O)C[C@H]2C(=O)N[C@@H](Cc2c[nH]c3ccccc23)C(=O)N[C@@H](CC(N)=O)C(=O)N[C@@H](Cc2cn(CC(=O)O)c3ccccc23)C(=O)N1C [Example 9016]
1 to 9.9	CCCC[C@H]1C(=O)N(C)[C@@H](CCCC)C(=O)NC(CC(C)C)C(=O)N[C@H](C(=O)NCC(N)=O)CNCC(=O)N[C@@H](Cc2ccc(O)cc2)C(=O)N(C)[C@@H](C)C(=O)N[C@@H](CC(N)=O)C(=O)N2CCC[C@H]2C(=O)N[C@@H](Cc2cnc[nH]2)C(=O)N[C@@H](CC(C)C)C(=O)N2CCC[C@H]2C(=O)N[C@@H](Cc2c[nH]c3ccccc23)C(=O)N[C@@H](CC(N)=O)C(=O)N[C@@H](Cc2c[nH]c3ccccc23)C(=O)N1C (some centres unmarked) [Example 10003]
10 to 99	CCCC[C@H]1C(=O)N(C)[C@@H](CCCC)C(=O)N[C@@H](CC(C)C)C(=O)NCCC[C@H](N)C(=O)N[C@@H](Cc2ccc(Cl)cc2)C(=O)N2CCCC[C@H]2C(=O)N[C@@H](CC(N)=O)C(=O)N2CCC[C@H]2C(=O)N[C@@H](CN)C(=O)N[C@@H](CCC(=O)O)C(=O)N2C[C@H](O)C[C@H]2C(=O)N[C@@H](Cc2c[nH]c3ccccc23)C(=O)N[C@@H](CCN)C(=O)N[C@@H](Cc2cn(CC(=O)O)c3ccccc23)C(=O)N1C [Example 10546] (H-[Orn][Phe(4-Cl)][Pip]NP[Dap]E[Hyp]W[Dab][Trp(1-CH2COOH)][NMeNle][NMeNle]L; lactam 1-C)
1 to 9.9	CCCC[C@H]1C(=O)N(C)[C@@H](CCCC)C(=O)N[C@@H](CC(C)C)C(=O)N[C@H](C(N)=O)CNCC(=O)N[C@@H](Cc2ccc(O)cc2)C(=O)N2CCCC[C@H]2C(=O)N[C@@H](CC(N)=O)C(=O)N2CCC[C@H]2C(=O)N[C@@H](CCC(N)=O)C(=O)N[C@@H](CCC(=O)O)C(=O)N2C[C@H](O)C[C@H]2C(=O)N[C@@H](Cc2c[nH]c3ccccc23)C(=O)N[C@@H](CC(N)=O)C(=O)N[C@@H](Cc2cn(CC(=O)O)c3ccccc23)C(=O)N1C [Example 9028]
